Measurements published in article PMC6528642, “Myo‐inositol‐1‐phosphate synthase (Ino‐1) functions as a protection mechanism in Corynebacterium glutamicum under oxidative stress” (MicrobiologyOpen, 2018).

Biological target: T1, Ino-1 (Corynebacterium glutamicum, UniProt Q8NLE6)
T1 construct: His6-tagged (pXMJ19-His6-ino-1), homologous expression in C. glutamicum delta-ino-1, Ni-NTA
Test: intrinsic protein fluorescence quenching (Ex […] nm, Em […] nm)
Type: binding
Conditions: read-out: apparent K D

T1 sequence (Q8NLE6 whole entry): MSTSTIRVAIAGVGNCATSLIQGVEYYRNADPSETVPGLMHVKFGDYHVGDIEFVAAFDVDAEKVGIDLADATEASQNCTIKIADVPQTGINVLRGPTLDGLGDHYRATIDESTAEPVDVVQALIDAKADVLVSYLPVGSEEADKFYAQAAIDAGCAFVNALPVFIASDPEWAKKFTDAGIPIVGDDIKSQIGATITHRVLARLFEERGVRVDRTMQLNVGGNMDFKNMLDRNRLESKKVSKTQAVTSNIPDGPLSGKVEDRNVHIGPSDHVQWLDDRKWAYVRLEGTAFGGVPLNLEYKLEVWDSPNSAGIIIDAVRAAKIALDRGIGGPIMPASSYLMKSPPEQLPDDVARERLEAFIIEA

NC(=O)c1ccc[n+]([C@@H]2O[C@H](COP(=O)(O)OP(=O)(O)OC[C@H]3O[C@@H](n4cnc5c(N)ncnc54)[C@H](O)[C@@H]3O)[C@@H](O)[C@H]2O)c1 [NAD^+]
Kd: 4.7 ± 0.8 µM
